Key:
ACHN = assay: NCI-60 anticancer screening (SRB); type: cell-based; settings: Homo sapiens, renal cancer, one dose 10 μM, read-out: Growth Inhibition Percentage (GI %)
T-47D = assay: NCI-60 anticancer screening (SRB); type: cell-based; settings: Homo sapiens, T47D, breast cancer, one dose 10 μM, read-out: Growth Inhibition Percentage (GI %)
SF-295 = assay: NCI-60 anticancer screening (SRB); type: cell-based; settings: Homo sapiens; SF-295, CNS cancer; one dose 10 μM; read-out: Growth Inhibition Percentage (GI %)
U251 = assay: NCI-60 anticancer screening (SRB); type: cell-based; settings: Homo sapiens, U-251; U251, CNS cancer; one dose 10 μM; read-out: Growth Inhibition Percentage (GI %)
K-562 = assay: NCI-60 anticancer screening (SRB); type: cell-based; settings: Homo sapiens, K562; K-562, leukemia; one dose 10 μM; read-out: Growth Inhibition Percentage (GI %)
NCI-H460 = assay: NCI-60 anticancer screening (SRB); type: cell-based; settings: Homo sapiens; NCI-H460, NSC lung cancer; one dose 10 μM; read-out: Growth Inhibition Percentage (GI %)
HOP-62 = assay: NCI-60 anticancer screening (SRB); type: cell-based; settings: Homo sapiens; HOP-62, NSC lung cancer; one dose 10 μM; read-out: Growth Inhibition Percentage (GI %)
HCT-116 = assay: NCI-60 anticancer screening (SRB); type: cell-based; settings: Homo sapiens; HCT-116, colon cancer; one dose 10 μM; read-out: Growth Inhibition Percentage (GI %)
NCI-H522 = assay: NCI-60 anticancer screening (SRB); type: cell-based; settings: Homo sapiens; NCI-H522, NSC lung cancer; one dose 10 μM; read-out: Growth Inhibition Percentage (GI %)
HT29 = assay: NCI-60 anticancer screening (SRB); type: cell-based; settings: Homo sapiens, HT-29; HT29, colon cancer; one dose 10 μM; read-out: Growth Inhibition Percentage (GI %)
UACC-257 = assay: NCI-60 anticancer screening (SRB); type: cell-based; settings: Homo sapiens; UACC-257, melanoma; one dose 10 μM; read-out: Growth Inhibition Percentage (GI %)
LOX IMVI = assay: NCI-60 anticancer screening (SRB); type: cell-based; settings: Homo sapiens, melanoma, one dose 10 μM, read-out: Growth Inhibition Percentage (GI %)
SNB-75 = assay: NCI-60 anticancer screening (SRB); type: cell-based; settings: Homo sapiens; SNB-75, CNS cancer; one dose 10 μM; read-out: Growth Inhibition Percentage (GI %)
SR = assay: NCI-60 anticancer screening (SRB); type: cell-based; settings: Homo sapiens, leukemia, one dose 10 μM, read-out: Growth Inhibition Percentage (GI %)
SF-268 = assay: NCI-60 anticancer screening (SRB); type: cell-based; settings: Homo sapiens; SF-268, CNS cancer; one dose 10 μM; read-out: Growth Inhibition Percentage (GI %)
SN 12C = assay: NCI-60 anticancer screening (SRB); type: cell-based; settings: Homo sapiens, SN12C; SN 12C, renal cancer; one dose 10 μM; read-out: Growth Inhibition Percentage (GI %)
HOP-92 = assay: NCI-60 anticancer screening (SRB); type: cell-based; settings: Homo sapiens; HOP-92, NSC lung cancer; one dose 10 μM; read-out: Growth Inhibition Percentage (GI %)
SNB-19 = assay: NCI-60 anticancer screening (SRB); type: cell-based; settings: Homo sapiens; SNB-19, CNS cancer; one dose 10 μM; read-out: Growth Inhibition Percentage (GI %)
DU-145 = assay: NCI-60 anticancer screening (SRB); type: cell-based; settings: Homo sapiens; DU-145, prostate cancer; one dose 10 μM; read-out: Growth Inhibition Percentage (GI %)
EKVX = assay: NCI-60 anticancer screening (SRB); type: cell-based; settings: Homo sapiens, NSC lung cancer, one dose 10 μM, read-out: Growth Inhibition Percentage (GI %)
OVCAR-5 = assay: NCI-60 anticancer screening (SRB); type: cell-based; settings: Homo sapiens; OVCAR-5, ovarian cancer; one dose 10 μM; read-out: Growth Inhibition Percentage (GI %)
RPMI-8226 = assay: NCI-60 anticancer screening (SRB); type: cell-based; settings: Homo sapiens; RPMI-8226, leukemia; one dose 10 μM; read-out: Growth Inhibition Percentage (GI %)
SK-MEL-2 = assay: NCI-60 anticancer screening (SRB); type: cell-based; settings: Homo sapiens; SK-MEL-2, melanoma; one dose 10 μM; read-out: Growth Inhibition Percentage (GI %)
SK-MEL-5 = assay: NCI-60 anticancer screening (SRB); type: cell-based; settings: Homo sapiens; SK-MEL-5, melanoma; one dose 10 μM; read-out: Growth Inhibition Percentage (GI %)
A498 = assay: NCI-60 anticancer screening (SRB); type: cell-based; settings: Homo sapiens; A498, renal cancer; one dose 10 μM; read-out: Growth Inhibition Percentage (GI %)
IGROV1 = assay: NCI-60 anticancer screening (SRB); type: cell-based; settings: Homo sapiens, IGROV-1; IGROV1, ovarian cancer; one dose 10 μM; read-out: Growth Inhibition Percentage (GI %)
M14 = assay: NCI-60 anticancer screening (SRB); type: cell-based; settings: Homo sapiens; M14, melanoma; one dose 10 μM; read-out: Growth Inhibition Percentage (GI %)
786-0 = assay: NCI-60 anticancer screening (SRB); type: cell-based; settings: Homo sapiens; 786-0, renal cancer; one dose 10 μM; read-out: Growth Inhibition Percentage (GI %)
MALME-3M = assay: NCI-60 anticancer screening (SRB); type: cell-based; settings: Homo sapiens, melanoma, one dose 10 μM, read-out: Growth Inhibition Percentage (GI %)
SF-539 = assay: NCI-60 anticancer screening (SRB); type: cell-based; settings: Homo sapiens; SF-539, CNS cancer; one dose 10 μM; read-out: Growth Inhibition Percentage (GI %)
NCI-H226 = assay: NCI-60 anticancer screening (SRB); type: cell-based; settings: Homo sapiens; NCI-H226, NSC lung cancer; one dose 10 μM; read-out: Growth Inhibition Percentage (GI %)
CAKI-1 = assay: NCI-60 anticancer screening (SRB); type: cell-based; settings: Homo sapiens; CAKI-1, renal cancer; one dose 10 μM; read-out: Growth Inhibition Percentage (GI %)

Row | Compound | inhibition at 10 µM (ACHN) [%] | inhibition at 10 µM (T-47D) [%] | inhibition at 10 µM (SF-295) [%] | inhibition at 10 µM (U251) [%] | melting point [°C] | inhibition at 10 µM (K-562) [%] | inhibition at 10 µM (NCI-H460) [%] | inhibition at 10 µM (HOP-62) [%] | inhibition at 10 µM (HCT-116) [%] | inhibition at 10 µM (NCI-H522) [%] | inhibition at 10 µM (HT29) [%] | inhibition at 10 µM (UACC-257) [%] | inhibition at 10 µM (LOX IMVI) [%] | inhibition at 10 µM (SNB-75) [%] | inhibition at 10 µM (SR) [%] | inhibition at 10 µM (SF-268) [%] | inhibition at 10 µM (SN 12C) [%] | inhibition at 10 µM (HOP-92) [%] | inhibition at 10 µM (SNB-19) [%] | inhibition at 10 µM (DU-145) [%] | also measured
1 | CCOC(=O)C1=C(N)N(c2ccccc2)C2=C(C(=O)CC(C)(C)C2)C1c1cccnc1 (racemic) [12d] | < 10 | < 10 | < 10 | < 10 | 215 to 217 | < 10 | < 10 | < 10 | < 10 | 15 | < 10 | < 10 | < 10 | 17 | < 10 | < 10 | < 10 | < 10 | < 10 | < 10 | inhibition at 10 µM (EKVX): < 10%; inhibition at 10 µM (OVCAR-5): < 10%; inhibition at 10 µM (RPMI-8226): < 10%; inhibition at 10 µM (SK-MEL-2): < 10%; inhibition at 10 µM (SK-MEL-5): < 10%; inhibition at 10 µM (A498): < 10%; inhibition at 10 µM (IGROV1): < 10%; inhibition at 10 µM (M14): < 10%; inhibition at 10 µM (786-0): < 10%; inhibition at 10 µM (MALME-3M): < 10%; inhibition at 10 µM (SF-539): < 10%; inhibition at 10 µM (NCI-H226): < 10%; inhibition at 10 µM (CAKI-1): < 10%
2 | CCOC(=O)C1=C(N)N(c2ccc(C)cc2)C2=C(C(=O)CC(C)(C)C2)C1c1cccnc1 (racemic) [12e, (±)-Ethyl 2-amino-7,7-dimethyl-1–(4-methylphenyl)-5-oxo-1-phenyl-4-(pyrdin-3-yl)-1,4,5,6,7,8-hexahydroquinoline-3-carboxylate] | < 10 | < 10 | < 10 | < 10 | 261 to 263 | < 10 | < 10 | < 10 | < 10 | < 10 | < 10 | < 10 | < 10 | 14 | < 10 | < 10 | < 10 | < 10 | < 10 | < 10 | inhibition at 10 µM (EKVX): < 10%; inhibition at 10 µM (OVCAR-5): < 10%; inhibition at 10 µM (RPMI-8226): 11%; inhibition at 10 µM (SK-MEL-2): < 10%; inhibition at 10 µM (SK-MEL-5): < 10%; inhibition at 10 µM (A498): < 10%; inhibition at 10 µM (IGROV1): < 10%; inhibition at 10 µM (M14): < 10%; inhibition at 10 µM (786-0): < 10%; inhibition at 10 µM (MALME-3M): < 10%; inhibition at 10 µM (SF-539): < 10%; inhibition at 10 µM (NCI-H226): < 10%; inhibition at 10 µM (CAKI-1): < 10%
3 | CCOC(=O)C1=C(N)N(c2ccccc2)C2=C(C(=O)CC(C)(C)C2)C1c1ccc(F)cc1 (racemic) [8a, (±)-Ethyl 2-amino-4–(4-fluorophenyl)-7,7-dimethyl-5-oxo-1-phenyl-1,4,5,6,7,8-hexahydroquinoline-3-carboxylate] | < 10 | < 10 | < 10 | < 10 | 215 to 217 | < 10 | < 10 | < 10 | < 10 | < 10 | < 10 | < 10 | < 10 | < 10 | < 10 | < 10 | < 10 | < 10 | < 10 | < 10 | inhibition at 10 µM (EKVX): < 10%; inhibition at 10 µM (OVCAR-5): < 10%; inhibition at 10 µM (RPMI-8226): < 10%; inhibition at 10 µM (SK-MEL-2): < 10%; inhibition at 10 µM (SK-MEL-5): < 10%; inhibition at 10 µM (A498): < 10%; inhibition at 10 µM (IGROV1): < 10%; inhibition at 10 µM (M14): < 10%; inhibition at 10 µM (786-0): < 10%; inhibition at 10 µM (MALME-3M): < 10%; inhibition at 10 µM (SF-539): < 10%; inhibition at 10 µM (NCI-H226): < 10%; inhibition at 10 µM (CAKI-1): < 10%

Source: publication PMC10408569, “Recruitment of hexahydroquinoline as anticancer scaffold targeting inhibition of wild and mutants EGFR (EGFR^WT, EGFR^T790M, and EGFR^L858R)” (Journal of Enzyme Inhibition and Medicinal Chemistry, 2023)
